Publication PMC3409115, “Diverse Inhibitor Chemotypes Targeting Trypanosoma cruzi CYP51” (PLoS Neglected Tropical Diseases, 2012)
Like-named read-outs stand apart in the source and are kept apart here.

Columns and labels:
[1] = tested on: T. cruzi-infected skeletal myoblasts (intracellular amastigotes); assay: Hit cross-validation in T. cruzi-infected mammalian cells (image-based assay); format: cell-based, Trypanosoma cruzi; details: read-out: EC50 against T. cruzi parasites in HTS assay used to rank order the hits
Protocol: Bovine embryo skeletal muscle cells or mouse C2C12 myoblasts (ATCC#CRL-1772) used in the cross-validation assay, were cultivated respectively in RPMI 1640 medium supplemented with 5% horse serum and Dulbecco's Modified Eagle's Medium H-21 containing 4.5 g/l glucose (DMEM H-21) (Cell Culture Facility, UCSF), supplemented with 5% fetal bovine serum (FBS) (Sigma Chemical Co., St. Louis, MO, USA), 25 mM HEPES, 2 mM L-glutamine, 100 U/ml penicillin, 100 µg/ml streptomycin. T. cruzi CAI-72 trypomastigotes were obtained from supernatant of infected cultures 4 to 7 days post-infection. Cultures were maintained at 37°C in an atmosphere of 5% CO2. To harvest parasites, the supernatant of infected cultures containing released trypomastigotes was collected and centrifuged at 600 rpm for 5 min to remove cell debris; the pellet was then discarded and the trypomastigotes remaining in the media were concentrated by spinning the culture tubes at 3300 rpm for 15 minutes. The parasite pellet was re-suspended in 2–5 ml of fresh media. Trypomastigote concentration was determined using a Neubauer hemocytometer.
(§1) Compound cross-validation in T. cruzi infected skeletal myoblasts (bovine embryo skeletal muscle or C2C12 lineage) was performed according to the protocol adapted from Engel and co-authors. Compounds stored as 10 mM stocks in DMSO were freshly diluted immediately prior to use. […] To prepare plates for the assay, skeletal myoblasts cultured in […] flasks were washed once with phosphate buffered saline (PBS) and then incubated with 0.25% trypsin in PBS for 1–3 minutes for detachment. The trypsin solution was removed and myoblasts were released from the flask bottom. Fresh medium was added and cell concentration was determined using a Neubauer hemocytometer. Myoblasts in 50 µl of culture medium were transferred to the clear-bottom wells of black 96-well plates (Greiner Bio-One, #655090) at a density of 1500 cells/well and infected with 50 µl trypomastigote culture at 7500 parasites/well (1∶5 ratio). The cells were allowed to adhere and spread for 24 h in the incubator before the media was removed and 100 µl of fresh medium containing 0, 0.04, 0.12, 0.37, 1.10, 3.30 or 10 µM of test compound was added to each well, followed by 72 h incubation at 37°C in an atmosphere of 5% CO2. Posaconazole was used as a positive control at the same concentrations as the test compounds. The cells were then fixed by adding 100 µl/well of 8% formaldehyde in PBS, resulting in a 4% working concentration of formaldehyde. To stain the nucleus of the host cell and the nucleus and kinetoplast of parasites, cell membranes were first permeabilized by washing once with 100 µl of 0.1% Triton X-100 in PBS, then treated for 1 h with 0.2 µg/ml of the fluorescent DNA dye, 4,6-diamidino-2-phenylindole (DAPI), followed by one wash with PBS. The fixed plates were kept at 4°C and protected from light until images were acquired.
(§2) Plates were allowed to equilibrate to room temperature and images were acquired by the IN Cell Analyzer 2000 (GE Healthcare) with a 20× objective, 5 fields per well, with 350/50 nm and 460/40 nm fluorescent excitation and emission filters. In the absence of drug cytotoxicity, at least 800 cells were imaged and counted per well. The images were processed and analyzed by IN Cell Analyzer Developer 1.6 software. The size parameters used to segment host and parasite organelles were 125 µm^2 for host nucleus, and 1–2 µm^2 for parasite nucleus/kinetoplast. Since DAPI also strongly stains host heterochromatin regions that display as shapes resembling parasites ( Figure 3 ), particles co-localized to host nuclei were excluded from quantification, while parasite aggregates near the host nucleus were counted as infected cells.

[2] = biological target: T1, T. cruzi CYP51 (Trypanosoma cruzi, UniProt Q7Z1V1); assay: HTS spectral-mode binding screen, type II difference spectra scored 0-5; details: spectral mode, four serial dilutions 2 µM to 12.5 µM, 2 µM CYP51
T1 construct: had the first 21 residues upstream of K22 replaced with the fragment MAKKKKK; His6 (C); made in house

[3] = tested on: host cell (skeletal myoblasts, bovine embryo skeletal muscle or C2C12); assay: Host cell toxicity in the cross-validation assay; format: cell-based; details: host cells in cross-validation assay, up to 10 µM
Protocol: as §1
as §2, with “cells. Numbers of host cells and intracellular amastigotes were determined based on host cell and parasite nucleus and parasite kinetoplast quantification, providing a measure of growth inhibition during the first 72 h of post-infection treatment compared to untreated controls.” for “cells.”
^aToxicity was assessed as the highest percentage of host cell growth inhibition caused by compound treatment. Scores are assigned as 1-<20%; 2-21-30%; 3- 31-40%; 4-41-50% and 5->50% growth inhibition.

[4] = Trypanosoma cruzi, Myoblast, 72 h
[5] = Trypanosoma cruzi, Myoblast, 72 h, T. cruzi-infected myoblasts, 72 h treatment
[6] = T. cruzi-infected myoblasts, 72 h treatment

T1 sequence (Q7Z1V1 15-481, looked up, natural form): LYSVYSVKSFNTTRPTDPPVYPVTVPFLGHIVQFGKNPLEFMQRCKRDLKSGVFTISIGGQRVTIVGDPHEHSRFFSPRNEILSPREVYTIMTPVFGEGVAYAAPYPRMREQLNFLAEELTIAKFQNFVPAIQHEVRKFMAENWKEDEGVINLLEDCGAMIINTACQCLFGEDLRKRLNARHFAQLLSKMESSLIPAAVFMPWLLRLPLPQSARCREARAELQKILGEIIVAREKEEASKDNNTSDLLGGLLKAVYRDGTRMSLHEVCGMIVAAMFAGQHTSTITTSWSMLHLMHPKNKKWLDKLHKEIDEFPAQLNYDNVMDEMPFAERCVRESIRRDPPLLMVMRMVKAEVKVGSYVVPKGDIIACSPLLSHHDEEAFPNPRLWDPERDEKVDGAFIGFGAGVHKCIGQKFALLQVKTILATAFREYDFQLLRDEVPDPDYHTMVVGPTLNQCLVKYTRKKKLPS

Row | Compound | EC50 [1, 4] [µM] | HTS binding score [2] | Toxicity score (highest percentage of host cell growth inhibition) [3] | EC50 [1, 5] [µM] | EC50 [1, 6] [µM]
1 | O=C(/C=C/c1cccs1)c1ccncc1 [Compound 56] | 9.62 | 3 | 3 (3- 31-40%) |  | 
2 | Cc1ccc(OCCCn2ccnc2)c(C)c1 [Compound 45] |  | 5 | 3 (3- 31-40%) | 8.01 | 
3 | COC(=O)C1=C(C)N(Cc2cccnc2)C(=O)/C1=C\c1ccccc1OCc1ccccc1 [Compound 53] | 9.06 | 3 | 1 (1-<20%) |  | 
4 | CC(C)=CCCC1=CCC2(COC(c3cccnc3)OC2)C(C)C1 (centres unmarked) [Compound 31] | 6.39 | 2 | 1 (1-<20%) |  | 
5 | OC(/C=C/c1ccccc1)(Cn1ccnc1)c1ccncc1 (centres unmarked) [Compound 12] | 1.1 | 1 | 1 (1-<20%) |  | 
6 | O=P(Nc1cccnc1)(Oc1ccccc1Cl)Oc1ccccc1Cl [Compound 41] | 7.73 | 5 | 1 (1-<20%) |  | 
7 | Nc1c(C(=O)NCCc2c[nH]c3ccccc23)sc2nc(-c3cccnc3)ccc12 [Compound 57] | 9.74 | 2 | 1 (1-<20%) |  | 
8 | OC(/C=C/c1cccc(C(F)(F)F)c1)(Cn1ccnc1)c1cccnc1 (centres unmarked) [Compound 23] | 2.89 | 1 | 1 (1-<20%) |  | 
9 | CC(C)(C)/C(=C\n1ccnc1)c1ccc(C(F)(F)F)cc1 [Compound 8] |  |  | 3 (3- 31-40%) | 0.75 | 0.754
10 | CCCCNC(=O)c1cc(-c2ccncc2)nc2ccccc12 [Compound 50] | 8.4 | 5 | 4 (4-41-50%) |  | 
11 | N#C/C(=C\C=C\c1ccccc1)C(=O)NCc1cccnc1 [Compound 49] | 8.26 | 3 | 1 (1-<20%) |  | 
12 | CCOC(=O)C1=C(C)N(C)C(C)=C(C(=O)OCC)C1c1ccncc1 [Compound 29] | 5.18 | 5 | 1 (1-<20%) |  | 
13 | Cc1ccc(NC(=O)c2sc3nc(-c4ccncc4)ccc3c2N)cc1Cl [Compound 22] | 2.86 | 2 | 2 (2-21-30%) |  | 
14 | Oc1cccc(Nc2nc(-c3ccncc3)cs2)c1 [Compound 37] | 7.33 |  | 4 (4-41-50%) |  | 
15 | CC(C)/C=C1\CC/C(=C\c2ccncc2)C1=O [Compound 35] | 7.15 |  | 1 (1-<20%) |  | 
16 | Cc1ccc(OCCCCCn2ccnc2)cc1C [Compound 4] |  |  | 3 (3- 31-40%) | 0.55 | 0.548
17 | O=C(/C(=C/c1ccc(F)cc1)n1cncn1)c1ccc(Cl)cc1Cl [Compound 43] | 7.8 |  | 3 (3- 31-40%) |  | 
18 | CCn1c(C(=O)NCc2cccnc2)cc2oc3ccccc3c21 [Compound 16] | 2.2 |  | 4 (4-41-50%) |  | 
19 | CC1=Nc2ncnn2C(c2cccnc2)/C1=C(\O)OC1CCCCC1 (centres unmarked) [Compound 55] | 9.54 |  | 1 (1-<20%) |  | 
20 | Cc1ccc(/C(=C\n2ccnc2)c2ccccc2)cc1 [Compound 10] |  |  | 4 (4-41-50%) | 0.95 | 0.92
21 | O=C(NCc1cccnc1)/C(=C\c1cccc(Oc2ccccc2)c1)S(=O)(=O)c1ccccc1 [Compound 52] | 8.99 |  | 5 (5->50% growth inhibition) |  | 
22 | O=S(=O)(NCc1csc(-c2cccnc2)n1)c1ccc(Br)cc1 [Compound 32] | 6.5 |  | 2 (2-21-30%) |  | 
